In paper PMC10258794, “To Fold or Not to Fold: Diastereomeric Optimization of an α-Helical Antimicrobial Peptide” (Journal of Medicinal Chemistry, 2023):
Converted amounts (≈) assume the structure as drawn. Read-outs that look alike come from different tables or passages of the source.

Assays:
E. coli W3110 = test system: E. coli W3110
Method: (§1) Antimicrobial activity was determined for all peptides on E. coli W3110, P. aeruginosa PAO1, A. baumannii ATCC19606, K. pneumoniae NCTC418, and methicillin-resistant S. aureus COL and for selected peptides on P. aeruginosa PA14 and the polymyxin B-resistant derivatives PA14 4.13, PA14 4.18, and PA14 2P4 as well as the clinical isolates ZEM-1A and ZEM9A, K. pneumoniae OXA-48, Enterobacter cloacae, Stenotrophomonas maltophilia, B. cenocepacia, and Staphylococus epidermis. To determine the MIC, the broth microdilution method was used.[75] A single bacterial colony was grown in LB medium overnight at 37 °C and 180 rpm shaking. The compounds were prepared as stock solutions of 2 mg/mL in sterilized milliQ deionized water, added to the first well of 96-well sterile, polypropylene round-bottom microtiter plates (TPP, untreated, Corning Incorporated, Kennebunk, USA), and diluted serially by 1/2. […] The bacterial inoculum was prepared by measuring the absorbance of the overnight culture, which was diluted to concentration of the bacteria was quantified by measuring absorbance at 600 nm and diluted to an OD600 of 0.022 in MH medium pH 7.4 (Sigma-Aldrich, Buchs, Switzerland). The sample solutions (150 μL) were mixed with 4 μL of diluted bacterial suspension with a final inoculation of about 5 × 10^5 CFU. For each test, two columns of the plate were kept for sterility control (MH medium only) and growth control (MH medium with bacterial inoculum, no compound). […] The plates were incubated at 37 °C for 16–20 h under static conditions. 15 μL of 3-(4,5-dimethylthiazol-2-yl)-2,5-diphenyltetrazolium bromide (MTT)[76] (1 mg/mL in sterilized milliQ deionized water) was added to each well, and the plates were incubated at room temperature until MTT staining was completed. The MIC was defined as the lowest concentration of the dendrimer that inhibits the visible growth of the tested bacteria (yellow) with the unaided eye.

A. baumannii ATCC19606 = test system: A. baumannii ATCC19606
Method: as §1

P. aeruginosa PAO1 = test system: P. aeruginosa PAO1
Method: as §1

K. pneumoniae NCTC418 = test system: K. pneumoniae NCTC418
Method: as §1

S. aureus COL MRSA = details: for MIC S. aureus COL MRSA: MH broth pH 7.4, 16–20 h, 37 °C; for MIC S. aureus COL: supplementary CSV, ranges of Table 1 given as one number
Method: as §1

[1] = MH broth pH 7.4, 16–20 h, 37 °C
[2] = supplementary CSV, ranges of Table 1 given as one number

Structure (SMILES)	MIC E. coli W3110 (E. coli W3110; [1]) [µg/mL]	MIC A. baumannii ATCC19606 (A. baumannii ATCC19606; [1]) [µg/mL]	MIC A. baumannii ATCC19606 (A. baumannii ATCC19606; [2]) [µg/mL]	MIC P. aeruginosa PAO1 (P. aeruginosa PAO1; [1]) [µg/mL]	MIC P. aeruginosa PAO1 (P. aeruginosa PAO1; [2]) [µg/mL]	MIC K. pneumoniae NCTC418 (K. pneumoniae NCTC418; [1]) [µg/mL]	MIC S. aureus COL MRSA (S. aureus COL MRSA) [µg/mL]	MIC S. aureus COL (S. aureus COL MRSA) [µg/mL]	MIC K. pneumoniae NCTC418 (K. pneumoniae NCTC418; [2]) [µg/mL]	MIC E. coli W3110 (E. coli W3110; [2]) [µg/mL]
CC(C)CC(NC(=O)C(CC(C)C)NC(=O)C(CC(C)C)NC(=O)C(CCCCN)NC(=O)C(CC(C)C)NC(=O)[C@H](CC(C)C)NC(=O)C(CCCCN)NC(=O)C(CC(C)C)NC(=O)C(CC(C)C)NC(=O)C(CCCCN)NC(=O)C(N)CCCCN)C(N)=O (mixture of isomers) [sr-ln65L^6]	4 (≈ 3.03 µM)	8 (≈ 6.05 µM)	8 (≈ 6.05 µM)	8 (≈ 6.05 µM)	8 (≈ 6.05 µM)	16 to 32	16 (≈ 12.1 µM)	16 (≈ 12.1 µM)		
CC(C)CC(NC(=O)C(CC(C)C)NC(=O)C(CC(C)C)NC(=O)C(CCCCN)NC(=O)C(CC(C)C)NC(=O)C(CC(C)C)NC(=O)C(CCCCN)NC(=O)C(CC(C)C)NC(=O)C(CC(C)C)NC(=O)C(CCCCN)NC(=O)C(N)CCCCN)C(N)=O (racemic) [sr-ln65]	4 (≈ 3.03 µM)	4 (≈ 3.03 µM)		4 (≈ 3.03 µM)		16 to 32	8 (≈ 6.05 µM)			
CC(C)C[C@H](NC(=O)[C@H](CC(C)C)NC(=O)[C@H](CC(C)C)NC(=O)[C@H](CCCCN)NC(=O)[C@@H](CC(C)C)NC(=O)[C@@H](CC(C)C)NC(=O)[C@H](CCCCN)NC(=O)[C@H](CC(C)C)NC(=O)[C@H](CC(C)C)NC(=O)[C@H](CCCCN)NC(=O)[C@@H](N)CCCCN)C(N)=O [HP6, KKLLKllKLLL]	2 (≈ 1.51 µM)	4 (≈ 3.03 µM)	4 (≈ 3.03 µM)	8 (≈ 6.05 µM)	8 (≈ 6.05 µM)	64 (≈ 48.4 µM)	16 (≈ 12.1 µM)	16 (≈ 12.1 µM)	64 (≈ 48.4 µM)	
CC(C)C[C@H](NC(=O)[C@H](CC(C)C)NC(=O)[C@H](CC(C)C)NC(=O)[C@H](CCCCN)NC(=O)[C@@H](CC(C)C)NC(=O)[C@@H](CC(C)C)NC(=O)[C@@H](CCCCN)NC(=O)[C@H](CC(C)C)NC(=O)[C@H](CC(C)C)NC(=O)[C@H](CCCCN)NC(=O)[C@@H](N)CCCCN)C(N)=O [HP9, KKLLkllKLLL]	8 (≈ 6.05 µM)			64 (≈ 48.4 µM)	64 (≈ 48.4 µM)	>64	>64			
CC(C)C[C@H](NC(=O)[C@H](CC(C)C)NC(=O)[C@H](CC(C)C)NC(=O)[C@H](CCCCN)NC(=O)[C@H](CC(C)C)NC(=O)[C@@H](CC(C)C)NC(=O)[C@H](CCCCN)NC(=O)[C@@H](CC(C)C)NC(=O)[C@@H](CC(C)C)NC(=O)[C@@H](CCCCN)NC(=O)[C@@H](N)CCCCN)C(N)=O [HP12, KkllKlLKLLL]	2 to 4	8 (≈ 6.05 µM)	8 (≈ 6.05 µM)	4 to 8	6 (≈ 4.54 µM)	8 to 16	4 (≈ 3.03 µM)	4 (≈ 3.03 µM)		3 (≈ 2.27 µM)
CC(C)C[C@H](NC(=O)[C@H](CC(C)C)NC(=O)[C@H](CC(C)C)NC(=O)[C@H](CCCCN)NC(=O)[C@@H](CC(C)C)NC(=O)[C@@H](CC(C)C)NC(=O)[C@H](CCCCN)NC(=O)[C@@H](CC(C)C)NC(=O)[C@@H](CC(C)C)NC(=O)[C@H](CCCCN)NC(=O)[C@@H](N)CCCCN)C(N)=O [HP14, KKllKllKLLL]	2 (≈ 1.51 µM)	4 to 8	6 (≈ 4.54 µM)	8 (≈ 6.05 µM)	8 (≈ 6.05 µM)	>64	16 to 32			
CC(C)C[C@H](NC(=O)[C@@H](CC(C)C)NC(=O)[C@@H](CC(C)C)NC(=O)[C@H](CCCCN)NC(=O)[C@H](CC(C)C)NC(=O)[C@H](CC(C)C)NC(=O)[C@H](CCCCN)NC(=O)[C@H](CC(C)C)NC(=O)[C@@H](CC(C)C)NC(=O)[C@@H](CCCCN)NC(=O)[C@@H](N)CCCCN)C(N)=O [HP17, KklLKLLKllL]	8 (≈ 6.05 µM)	32 (≈ 24.2 µM)	32 (≈ 24.2 µM)	16 (≈ 12.1 µM)	16 (≈ 12.1 µM)	32 to 64	32 to 64	48 (≈ 36.3 µM)	48 (≈ 36.3 µM)	
CC(C)C[C@H](NC(=O)[C@H](CCCCN)NC(=O)[C@H](CC(C)C)NC(=O)[C@H](CC(C)C)NC(=O)[C@@H](CCCCN)NC(=O)[C@H](N)CCCCN)C(=O)N[C@@H](CC(C)C)C(=O)N[C@@H](CCCCN)C(=O)N[C@@H](CC(C)C)C(=O)N[C@H](CC(C)C)C(=O)N[C@H](CC(C)C)C(N)=O [HP18, kkLLKLLKLll]	4 to 8	8 (≈ 6.05 µM)	8 (≈ 6.05 µM)	8 (≈ 6.05 µM)	8 (≈ 6.05 µM)	>64	16 to 32			6 (≈ 4.54 µM)
CC(C)C[C@H](NC(=O)[C@H](CC(C)C)NC(=O)[C@@H](CC(C)C)NC(=O)[C@@H](CCCCN)NC(=O)[C@H](CC(C)C)NC(=O)[C@H](CC(C)C)NC(=O)[C@H](CCCCN)NC(=O)[C@@H](CC(C)C)NC(=O)[C@@H](CC(C)C)NC(=O)[C@H](CCCCN)NC(=O)[C@@H](N)CCCCN)C(N)=O [HP20, KKllKLLklLL]	8 (≈ 6.05 µM)	32 to 64	48 (≈ 36.3 µM)	16 (≈ 12.1 µM)	16 (≈ 12.1 µM)	>64	>64			
CC(C)C[C@H](NC(=O)[C@H](CC(C)C)NC(=O)[C@@H](CCCCN)NC(=O)[C@H](CC(C)C)NC(=O)[C@H](CC(C)C)NC(=O)[C@@H](CCCCN)NC(=O)[C@@H](CC(C)C)NC(=O)[C@H](CC(C)C)NC(=O)[C@H](CCCCN)NC(=O)[C@@H](N)CCCCN)C(=O)N[C@H](CC(C)C)C(N)=O [HP23, KKLlkLLkLLl]	2 (≈ 1.51 µM)			4 to 8	6 (≈ 4.54 µM)	>64	32 (≈ 24.2 µM)	32 (≈ 24.2 µM)		
CC(C)C[C@H](NC(=O)[C@H](CC(C)C)NC(=O)[C@@H](CCCCN)NC(=O)[C@H](CC(C)C)NC(=O)[C@H](CC(C)C)NC(=O)[C@@H](CCCCN)NC(=O)[C@H](CC(C)C)NC(=O)[C@H](CC(C)C)NC(=O)[C@@H](CCCCN)NC(=O)[C@H](N)CCCCN)C(=O)N[C@H](CC(C)C)C(N)=O [HP27, kkLLkLLkLLl]	4 (≈ 3.03 µM)	32 (≈ 24.2 µM)	32 (≈ 24.2 µM)	8 (≈ 6.05 µM)	8 (≈ 6.05 µM)	>64	32 (≈ 24.2 µM)	32 (≈ 24.2 µM)		
